Measurements from article PMC11802874, “The hypolipidemic effect of MI-883, the combined CAR agonist/ PXR antagonist, in diet-induced hypercholesterolemia model” (Nature Communications, 2025).
Where “and” joins values, the source holds several entries; their conditions need not be identical. Identical values can stand only once.

Key:
[1] = tested on: HepaRG cells; experiment: RT-qPCR mRNA expression in differentiated HepaRG cells
Description: HepaRG cells from Biopredic (Rennes, France) were cultivated and differentiated on the 12-well plates. […] Several batches of HepaRG KO CAR (CAR Knockout HepaRG™ Cells, MTOX1012-1VL, RRID:CVCL_B6AA) and PXR Knockout HepaRG™ Cells, MTOX1011-1VL, RRID:CVCL_B6AS) cells have been obtained from Sigma-Aldrich/Merck (Darmstadt, Germany) and cultivated according to the provider’s protocols. […] Experiments with HepaRG KO PXR and HepaRG KO CAR cells have been performed in duplicates at least in two independent experiments.
RT-qPCR was used to examine gene expression in 2D and 3D PHH, HepaRG cells, or in mouse liver or intestine (ileum) samples as we have described before[60]–[62].
All qRT-qPCR experiments including Trizol reagent (Life Technologies) total RNA isolation, reverse-transcription using a random hexaprimer, and the MMLV Reverse Transcriptase Kit (ThermoFisher Scientific) we have described before^19. qPCR was performed using TaqMan Fast Advanced Master Mix with TaqMan probes (ThermoFisher Scientific). […] The delta-delta method was used for gene expression quantification normalized to at least two reference genes. Three technical replicates were used for each reaction considering the MIQE guidelines. Data are presented as fold induction to vehicle-treated cells/animals.

[2] = target: mouse Car (Mus musculus, UniProt O35627); experiment: Luciferase reporter gene assay mouse Car, HepG2
Description: The luciferase reporter gene assays for FXR, LXRα, LXRβ, THα, GRα, PPARα, PPARδ/β, PPARγ, AhR, VD, ERα, ERβ and mouse Car are described in our recent paper[19]
The mouse Car expression vector pCMV6-mCar (NM_009803) was obtained from OriGene Technologies, Rockville, MD, USA).
Gal4-LBD constructs of tested nuclear receptors have been used together with pGL4.31[luc2P/GAL4UAS/Hygro] luciferase reporter construct and pRL-TK Renilla expression vector (both from Promega, Hercules, USA) in HepG2 cells transfected with Lipofectamine 2000 or 3000 reagents. For GRα and FXR receptors, full-length expression vectors have been used with pGRE-luc or pFXRE-luc luciferase constructs. For the aryl hydrocarbon receptor (AhR), p1A1-luc construct was used with only pRL-TK vector for transfection normalization. A dual reporter assay (Promega, Hercules, USA) was used to analyze both firefly and Renilla luciferase activities.
Gal4-LBD constructs of tested nuclear receptors have been used together with pGL5-luc luciferase reporter construct and pRL-TK Renilla expression vector in HepG2 cells transfected with Lipofectamine 2000 or 3000 reagents. For GRα and FXR receptors, full-length expression vectors have been used with pGRE-luc or pFXRE-luc luciferase constructs. For the aryl hydrocarbon receptor (AhR), p1A1-luc construct was used with only pRL-TK vector for transfection normalization. […] Bars represent means±S.D. (n=3).

[3] = target: T1, mutant PXR LBD (S208W/S247W/C284W) (Homo sapiens, UniProt O75469, C284W/S208W/S247W); experiment: CYP3A4 reporter assay with LBP-obstructed mutant PXR in HepG2 cells; type: cell-based; conditions: HepG2, 24 h
T1 construct: expressed in transfected cells; host or cells: HepG2
Description: The luciferase reporter plasmid was used together with the human wild-type PXR expression vector or with expression vectors with mutated PXR LBD (Fig. 1j).

[4] = single agent 5: MI-883 5, Rif (5 μM) alone

mouse Car, sequence (O35627 whole entry, the tested form may be a part): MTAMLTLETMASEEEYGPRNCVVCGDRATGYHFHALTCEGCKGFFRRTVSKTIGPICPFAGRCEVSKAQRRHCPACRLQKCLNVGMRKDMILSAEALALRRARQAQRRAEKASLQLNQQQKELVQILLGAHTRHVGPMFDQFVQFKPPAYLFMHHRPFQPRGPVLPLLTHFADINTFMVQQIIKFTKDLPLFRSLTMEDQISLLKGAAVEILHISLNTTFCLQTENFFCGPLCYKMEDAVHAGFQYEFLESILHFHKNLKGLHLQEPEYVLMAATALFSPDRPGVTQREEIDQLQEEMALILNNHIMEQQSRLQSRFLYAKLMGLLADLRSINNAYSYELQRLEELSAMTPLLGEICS
T1 sequence (O75469 whole entry S208W/S247W/C284W, the tested form may be a part): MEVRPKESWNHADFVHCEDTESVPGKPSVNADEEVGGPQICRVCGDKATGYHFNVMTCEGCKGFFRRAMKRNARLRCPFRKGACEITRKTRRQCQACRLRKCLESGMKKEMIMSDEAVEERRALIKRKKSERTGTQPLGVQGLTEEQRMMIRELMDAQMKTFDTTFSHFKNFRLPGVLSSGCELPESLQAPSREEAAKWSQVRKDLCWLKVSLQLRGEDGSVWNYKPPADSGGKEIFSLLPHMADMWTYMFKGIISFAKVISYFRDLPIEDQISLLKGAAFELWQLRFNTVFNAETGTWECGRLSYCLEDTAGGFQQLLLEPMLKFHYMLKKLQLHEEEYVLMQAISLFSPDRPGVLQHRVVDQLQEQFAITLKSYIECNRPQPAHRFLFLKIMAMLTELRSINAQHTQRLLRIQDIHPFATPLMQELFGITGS

NC(=O)c1cc(Cn2cc(-c3c(-c4ccc(Cl)cc4)nc4cc(F)ccn34)nn2)ccc1Cl [MI-883, 2-chloro-5-((4-(2-(4-chlorophenyl)-7-fluoroimidazo[1,2-a]pyridin-3-yl)-1H-1,2,3-triazol-1-yl)methyl)benzamide]
HMGCS2 expression relative to control (replicates) ([1]; MI-883 10 μM): 0.4009 and 0.6268 and 0.831 and 0.8846 | PCSK9 expression relative to control (replicates) ([1]; MI-883 10 μM): 0.6175 and 0.9465 and 1.014 and 0.9985 | HMGCR expression relative to control (replicates) ([1]; MI-883 10 μM + Rif (5 μM)): 1.336 and 1.4868 and 1.027 and 1.993 | HMGCS2 expression relative to control (replicates) ([1]; MI-883 10 μM + Rif (5 μM)): 0.9594 and 1.125 and 0.477 and 0.8873 | PCSK9 expression relative to control (replicates) ([1]; MI-883 10 μM + Rif (5 μM)): 1.314 and 0.9884 and 1.015 and 0.8211 | HMGCR expression relative to control (replicates) ([1]; MI-883 20 μM): 1.186 and 1.442 and 1.1738 | HMGCS2 expression relative to control (replicates) ([1]; MI-883 20 μM): 0.7901 and 0.8336 and 1.102 | PCSK9 expression relative to control (replicates) ([1]; MI-883 20 μM): 0.9308 and 1.156 and 1.11 | HMGCR expression relative to control (replicates) ([1]; MI-883 20 μM + Rif (5 μM)): 0.8382 and 1.516 and 1.756 | HMGCS2 expression relative to control (replicates) ([1]; MI-883 20 μM + Rif (5 μM)): 1.0412 and 1.1415 and 0.9223 | PCSK9 expression relative to control (replicates) ([1]; MI-883 20 μM + Rif (5 μM)): 1.334 and 1.4007 and 1.046 | CYP7A1 mRNA fold (Fig. 3f,g sheet), replicates ([1]; MI-883 1): 0.5746 and 0.6713 and 0.8972 and 0.7445 | INSIG1 mRNA fold (Fig. 3f,g sheet), replicates ([1]; MI-883 1): 1.005 (2×) and 0.8339 | LDLR mRNA fold (Fig. 3f,g sheet), replicates ([1]; MI-883 1): 1.161 and 1.262 and 0.9041 and 0.8572 | SREBF1 mRNA fold (Fig. 3f,g sheet), replicates ([1]; MI-883 1): 0.7942 and 0.8996 and 0.7218 | SREBF2 mRNA fold (Fig. 3f,g sheet), replicates ([1]; MI-883 1): 0.6439 and 0.7635 and 0.7748 and 1.065 and 0.7449 and 1.037 | mRNA fold, Fig. 3b sheet, first block (CYP3A4), replicates ([1]; MI-883 1 (µM), 24 h): 0.8362 and 0.801 and 0.9683 and 1.172 and 0.7446 | mRNA fold, Fig. 3b sheet, second block (gene not given; CYP2B6), replicates ([1]; MI-883 1 (µM), 24 h): 2.928 and 2.816 and 2.017 and 3.044 and 1.065 | mRNA fold, Fig. 3b sheet, first block (CYP3A4), replicates ([1]; MI-883 1 + Rif (5 μM)): 1.353 and 3.215 and 5.541 | mRNA fold, Fig. 3b sheet, second block (CYP2B6), replicates ([1]; MI-883 1 + Rif (5 μM)): 2.0016 and 2.546 and 5.3 | CYP7A1 mRNA fold (Fig. 3f,g sheet), replicates ([1]; MI-883 5): 0.5588 and 0.4759 and 0.4175 | INSIG1 mRNA fold (Fig. 3f,g sheet), replicates ([1]; MI-883 5): 1.268 and 1.368 and 1.1831 | LDLR mRNA fold (Fig. 3f,g sheet), replicates ([1]; MI-883 5): 1.377 and 1.27 and 1.084 | SQLE mRNA fold (Fig. 3f,g sheet), replicates ([1]; MI-883 5): 1.181 (2×) and 1.026 | SREBF1 mRNA fold (Fig. 3f,g sheet), replicates ([1]; MI-883 5): 0.6652 and 0.6777 and 0.7568 | SREBF2 mRNA fold (Fig. 3f,g sheet), replicates ([1]; MI-883 5): 0.5404 and 1.004 and 0.7053 | mRNA fold, Fig. 3b sheet, first block (CYP3A4), replicates ([1]; MI-883 5 + Rif (5 μM)): 1.354 and 1.7483 and 1.162 | mRNA fold, Fig. 3b sheet, second block (CYP2B6), replicates ([1]; MI-883 5 + Rif (5 μM)): 2.182 and 1.817 | CYP7A1 mRNA fold (Fig. 3f,g sheet), replicates ([1]; MI-883 10): 0.4275 and 0.3155 and 0.5022 and 0.4393 | INSIG1 mRNA fold (Fig. 3f,g sheet), replicates ([1]; MI-883 10): 1.223 and 1.042 and 1.225 and 1.172 | LDLR mRNA fold (Fig. 3f,g sheet), replicates ([1]; MI-883 10): 1.481 and 1.183 | SQLE mRNA fold (Fig. 3f,g sheet), replicates ([1]; MI-883 10): 1.043 and 1.272 and 0.888 and 1.111 and 1.1255 | SREBF1 mRNA fold (Fig. 3f,g sheet), replicates ([1]; MI-883 10): 0.5595 and 0.8022 (2×) and 0.6597 | SREBF2 mRNA fold (Fig. 3f,g sheet), replicates ([1]; MI-883 10): 0.6518 and 0.837 and 1.166 and 1.224 and 0.9179 and 0.9421 | mRNA fold, Fig. 3b sheet, first block (CYP3A4), replicates ([1]; MI-883 10): 0.3642 and 0.6511 and 0.7047 and 0.8281 and 0.7972 and 0.5808 | mRNA fold, Fig. 3b sheet, second block (CYP2B6), replicates ([1]; MI-883 10): 2.037 and 2.07 and 1.475 and 2.671 and 1.239 and 0.7631 | mRNA fold, Fig. 3b sheet, first block (CYP3A4), replicates ([1]; MI-883 10 + Rif (5 μM)): 0.875 and 1.224 and 1.6089 and 0.7778 | mRNA fold, Fig. 3b sheet, second block (CYP2B6), replicates ([1]; MI-883 10 + Rif (5 μM)): 1.519 and 3.467 and 2.287 and 1.0661 | CYP7A1 mRNA fold (Fig. 3f,g sheet), replicates ([1]; MI-883 20): 0.3598 and 0.7856 | INSIG1 mRNA fold (Fig. 3f,g sheet), replicates ([1]; MI-883 20): 1.146 and 1.273 | LDLR mRNA fold (Fig. 3f,g sheet), replicates ([1]; MI-883 20): 1.442 and 1.216 and 1.519 | SQLE mRNA fold (Fig. 3f,g sheet), replicates ([1]; MI-883 20): 1.646 and 1.048 | SREBF1 mRNA fold (Fig. 3f,g sheet), replicates ([1]; MI-883 20): 0.7299 and 0.7553 | SREBF2 mRNA fold (Fig. 3f,g sheet), replicates ([1]; MI-883 20): 1.072 and 1.4 and 1.1431 | mRNA fold, Fig. 3b sheet, first block (CYP3A4), replicates ([1]; MI-883 20): 0.6466 and 0.6905 and 0.8398 and 0.439 | mRNA fold, Fig. 3b sheet, second block (CYP2B6), replicates ([1]; MI-883 20): 1.395 and 1.4687 and 2.208 and 1.5457 | mRNA fold, Fig. 3b sheet, first block (CYP3A4), replicates ([1]; MI-883 20 + Rif (5 μM)): 0.5897 and 1.016 | mRNA fold, Fig. 3b sheet, second block (CYP2B6), replicates ([1]; MI-883 20 + Rif (5 μM)): 0.9269 and 2.43 and 1.46 | CYP7A1 mRNA in HepaRG cells ([1]; MI-883: in the absence and presence of rifampicin): significant downregulation | rifampicin induction of SQLE mRNA in HepaRG cells ([1]; MI-883 at 1 μM, SPA70): abrogated | CYP2B6 mRNA, RT-qPCR, HepaRG (Fig. 1f), replicates ([1]; Phenobarbital 500 μM, CITCO 1 μM, MI 883 1 μM, ctrl = 1): 4.75 and 4.15 and 4.1 | ABCC4 and UGT1A1 genes in HepaRG cells ([1]; Supplementary Fig. 10): upregulated | mRNA fold, Fig. 3b sheet, first block (CYP3A4), replicates [1, 4]: 0.6927 and 0.6641 and 0.6779 | mRNA fold, Fig. 3b sheet, second block (CYP2B6), replicates [1, 4]: 3.953 and 2.541 and 3.216 | NRs assays: mCar (relative to ctrl, replicates) [2]: 1.15 and 1.36 and 1.11 | inhibition of constitutive activity of LBP-obstructed mutant PXR [3]: failure of MI-883 to inhibit
